Assay results as given in the NIST ThermoML archive (doi:10.1021/je060107n).

Test: mn = molality of the nth substance listed, in mol/kg
Conditions: 101 kPa, Liquid; for mass density: Pycnometric method; for viscosity: Capillary tube (Ostwald / Ubbelohde) method; for speed of sound: Linear variable-path acoustic interferometer

O=[N+]([O-])[O-].O=[N+]([O-])[O-].[Mg+2] [magnesium nitrate] + O
Conditions	mass density [kg/m3]	speed of sound [m/s]	viscosity [mPa·s]
314.7 K, m1 = 0.0528	996.94	–	–
315 K, m1 = 0.0145	992.8	–	–
315.05 K, m1 = 1.525	1135.2	–	–
315.1 K, m1 = 3.501	1288.9	–	–
315.15 K, m1 = 3.757	1305.4	–	–
315.25 K, m1 = 0.9898	1088.5	–	–
315.25 K, m1 = 1.262	1112.4	–	–
315.3 K, m1 = 3.17	1270.8	–	–
315.6 K, m1 = 4.728	1367.6	–	–
315.8 K, m1 = 5.134	1391.1	–	–
315.95 K, m1 = 0.3405	1025.4	–	–
316.1 K, m1 = 0.896	1079	–	–
316.1 K, m1 = 2.793	1238.2	–	–
316.15 K, m1 = 1.827	1162.1	–	–
316.25 K, m1 = 4.039	1322.3	–	–
316.35 K, m1 = 4.97	1380.1	–	–
316.45 K, m1 = 5.282	1399.6	–	–
316.75 K, m1 = 0.6173	1052.2	–	–
317.15 K, m1 = 0.0528	995.93	–	–
317.15 K, m1 = 3.501	1287.7	–	–
317.25 K, m1 = 1.525	1134	–	–
317.25 K, m1 = 3.096	1259.7	–	–
317.35 K, m1 = 2.493	1213.8	–	–
317.35 K, m1 = 3.757	1304.1	–	–
317.5 K, m1 = 0.9898	1087.3	–	–
317.5 K, m1 = 1.262	1111.2	–	–
317.55 K, m1 = 3.118	1260.5	–	–
317.55 K, m1 = 4.285	1337.9	–	–
317.75 K, m1 = 2.131	1186	–	–
317.85 K, m1 = 0.2491	1016.9	–	–
317.95 K, m1 = 4.883	1372.7	–	–
318.15 K, m1 = 0.0145	–	1540.2	0.6082
318.15 K, m1 = 0.0528	–	1541.4	0.62
318.15 K, m1 = 0.2491	–	1554.4	0.655
318.15 K, m1 = 0.3405	–	1552.3	–
318.15 K, m1 = 0.5931	–	–	0.7284
318.15 K, m1 = 0.6173	–	1572	–
318.15 K, m1 = 0.896	–	1590	–
318.15 K, m1 = 0.9898	–	1596.3	0.8367
318.15 K, m1 = 1.262	–	1612.6	0.9225
318.15 K, m1 = 1.525	–	1629.5	–
318.15 K, m1 = 1.827	1160.9	1650.5	1.117
318.15 K, m1 = 2.131	–	1668.7	1.245
318.15 K, m1 = 2.493	–	1689.3	–
318.15 K, m1 = 2.584	–	–	1.473
318.15 K, m1 = 2.793	–	1708.7	–
318.15 K, m1 = 3.096	–	–	1.772
318.15 K, m1 = 3.118	–	1727.2	–
318.15 K, m1 = 3.17	–	1733.9	–
318.15 K, m1 = 3.329	–	–	1.935
318.15 K, m1 = 3.501	–	1748.8	–
318.15 K, m1 = 3.704	–	–	2.216
318.15 K, m1 = 3.757	–	1761.7	–
318.15 K, m1 = 4.039	–	–	2.545
318.15 K, m1 = 4.051	1321.2	1776	–
318.15 K, m1 = 4.285	–	1787.8	–
318.15 K, m1 = 4.403	–	1794.4	–
318.15 K, m1 = 4.728	–	–	3.456
318.15 K, m1 = 4.883	–	1818.4	–
318.15 K, m1 = 4.907	–	–	3.76
318.15 K, m1 = 5.134	–	1832.8	–
318.15 K, m1 = 5.282	–	–	4.426
318.25 K, m1 = 3.704	1300.4	–	–
318.35 K, m1 = 2.584	1221.6	–	–
318.4 K, m1 = 0.896	1077.9	–	–
318.5 K, m1 = 4.97	1378.6	–	–
318.7 K, m1 = 1.694	1148.1	–	–
318.8 K, m1 = 4.403	1344	–	–
318.8 K, m1 = 5.282	1398.1	–	–
318.9 K, m1 = 0.5931	1048.4	–	–
319.05 K, m1 = 0.6173	1051.1	–	–
319.35 K, m1 = 1.525	1132.8	–	–
319.35 K, m1 = 3.757	1302.8	–	–
